According to article doi:10.1101/396440v2, “Large-scale chemical-genetics yields new Mycobacterium tuberculosis inhibitor classes” (biorxiv, 2019):

Tests used:
Mtb's efpA homolog = Mtb's efpA homolog (Mycobacterium tuberculosis, UniProt P9WJY5); conditions: high-affinity interaction lost on efpA deletion
EfpA = target: T1, EfpA (Mycolicibacterium smegmatis, UniProt A0QVL8); assay: ethidium bromide efflux (fluorescence) in M. smegmatis cells; type: cell-based
T1 construct: gene MSMEG_2619; native efflux pump in intact M. smegmatis cells; ethidium bromide efflux read-out

Mtb DNA gyrase = target: T2, Mtb DNA gyrase (Mycobacterium tuberculosis, UniProt P9WG45+P9WG47); assay: DNA supercoiling/decatenation inhibition, agarose gel; type: biochemical
T2 construct: gene gyrA; in vitro DNA gyrase; source details in supplement
T2 sequence (P9WG45 whole entry): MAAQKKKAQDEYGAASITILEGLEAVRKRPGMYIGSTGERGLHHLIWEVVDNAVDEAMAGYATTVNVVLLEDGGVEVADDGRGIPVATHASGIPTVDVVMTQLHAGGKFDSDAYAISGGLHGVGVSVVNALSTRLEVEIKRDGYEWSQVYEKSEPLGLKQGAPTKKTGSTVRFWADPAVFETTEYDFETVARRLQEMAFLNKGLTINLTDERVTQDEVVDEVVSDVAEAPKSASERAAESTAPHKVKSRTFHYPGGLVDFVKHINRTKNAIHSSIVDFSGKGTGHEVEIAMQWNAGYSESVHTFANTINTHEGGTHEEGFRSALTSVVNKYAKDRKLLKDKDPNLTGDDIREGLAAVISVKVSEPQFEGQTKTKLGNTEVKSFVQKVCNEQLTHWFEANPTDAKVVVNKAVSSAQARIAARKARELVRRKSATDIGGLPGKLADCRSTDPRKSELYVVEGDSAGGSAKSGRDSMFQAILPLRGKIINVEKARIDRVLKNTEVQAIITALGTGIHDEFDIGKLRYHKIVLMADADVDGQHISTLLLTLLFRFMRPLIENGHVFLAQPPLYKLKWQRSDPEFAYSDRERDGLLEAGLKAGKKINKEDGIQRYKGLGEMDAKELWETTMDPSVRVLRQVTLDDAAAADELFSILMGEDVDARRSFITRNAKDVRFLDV
T2 sequence (P9WG47 2-838): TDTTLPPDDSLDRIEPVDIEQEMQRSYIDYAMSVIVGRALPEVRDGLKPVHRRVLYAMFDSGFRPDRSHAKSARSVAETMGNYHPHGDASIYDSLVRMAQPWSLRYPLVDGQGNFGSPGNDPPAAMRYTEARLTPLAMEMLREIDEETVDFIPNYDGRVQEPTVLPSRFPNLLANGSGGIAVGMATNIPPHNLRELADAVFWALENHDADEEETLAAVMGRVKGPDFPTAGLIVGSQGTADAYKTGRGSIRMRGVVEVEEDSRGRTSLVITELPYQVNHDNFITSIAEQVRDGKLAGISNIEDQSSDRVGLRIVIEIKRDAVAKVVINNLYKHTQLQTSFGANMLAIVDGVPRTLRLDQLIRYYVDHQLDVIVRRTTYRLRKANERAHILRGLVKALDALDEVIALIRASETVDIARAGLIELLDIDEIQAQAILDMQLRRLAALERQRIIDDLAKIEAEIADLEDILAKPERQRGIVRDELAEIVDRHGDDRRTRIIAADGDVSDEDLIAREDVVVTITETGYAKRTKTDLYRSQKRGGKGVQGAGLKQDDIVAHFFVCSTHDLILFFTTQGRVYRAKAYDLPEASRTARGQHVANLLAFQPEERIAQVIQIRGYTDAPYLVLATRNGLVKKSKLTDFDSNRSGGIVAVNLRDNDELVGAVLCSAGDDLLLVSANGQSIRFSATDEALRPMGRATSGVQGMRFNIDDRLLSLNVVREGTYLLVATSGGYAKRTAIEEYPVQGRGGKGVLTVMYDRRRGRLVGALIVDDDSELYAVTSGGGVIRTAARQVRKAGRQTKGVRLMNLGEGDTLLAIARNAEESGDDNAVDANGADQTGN

Chain of Mtb's efpA homolog (P9WJY5 whole entry): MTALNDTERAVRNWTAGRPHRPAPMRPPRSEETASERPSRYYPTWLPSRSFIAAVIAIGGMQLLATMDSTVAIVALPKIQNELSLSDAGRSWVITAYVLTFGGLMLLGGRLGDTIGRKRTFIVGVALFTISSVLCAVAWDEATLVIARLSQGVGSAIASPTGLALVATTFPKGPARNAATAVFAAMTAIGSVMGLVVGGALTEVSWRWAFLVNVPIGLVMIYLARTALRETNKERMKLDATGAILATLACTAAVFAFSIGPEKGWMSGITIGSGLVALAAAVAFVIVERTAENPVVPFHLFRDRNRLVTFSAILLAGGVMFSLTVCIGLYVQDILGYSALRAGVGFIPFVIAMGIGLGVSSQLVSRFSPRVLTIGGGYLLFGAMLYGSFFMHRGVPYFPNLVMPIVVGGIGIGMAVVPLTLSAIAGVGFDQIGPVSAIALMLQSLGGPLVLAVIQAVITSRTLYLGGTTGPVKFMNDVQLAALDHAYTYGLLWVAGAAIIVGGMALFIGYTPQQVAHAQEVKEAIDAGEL

Row | SMILES | interaction with M. smegmatis efpA deletion strain complemented with Mtb efpA (Mtb's efpA homolog) | IC50 (EfpA) [µM] | DNA supercoiling/decatenation inhibition, agarose gel (Mtb DNA gyrase)
1 | CC(C)=C[C@H]1[C@H](C(=O)Nc2cccc(Br)n2)C1(C)C [BRD-8000.2] | This highaffinity interaction is restored by episomal complementation of Mtb’s efpA homolog | 15 | 
2 | O=C1c2ccccc2-n2c1nc1ccccc1c2=O [tryptanthrin] |  |  | we validated it to be a DNA gyrase inhibitor
3 | CC(C)=C[C@@H]1[C@@H](C(=O)Nc2cccc(Br)n2)C1(C)C [(R,R)-trans isomer of BRD-8000.2] |  | 500 | 
4 | CC(C)=CC1C(C(=O)Nc2ccc(Br)cn2)C1(C)C (mixture of isomers) [BRD-8000] |  | 38 | 
